Data: patent US9498483B2, “2,3,5-trisubstituted thiophene compounds and uses thereof” (priority 2010, dated 2016)

What was measured:
HCV polymerase = molecular target: T1, HCV polymerase (Hepatitis C virus genotype 1b, UniProt Q9WMX2); experiment: Polymerase assay of Biological Example 1 (IC50 values of Table 3); assay type: biochemical; conditions: IC50 values of Table 3, polymerase assay of Biological Example 1; read-out: NS5B-enzyme3
T1 construct: (His)6 (C); made in house; host or cells: XL-1 cells (E. coli, by own knowledge)

[1] = system: HCV replicon I389luc-ubi-neo/NS3-3′/ET in ET (Huh-lucubineo-ET) cells; experiment: Replicon assay (Biological Example 2), luciferase readout; assay type: cell-based; conditions: Hepatitis C virus
In short: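 EC50 values come from Hill fits of % inhibition of replicon-driven firefly luciferase, relative to no-compound wells. Compounds were serially diluted (10 points, 3-fold, 0.1 nM–50 μM final, 0.5% DMSO) onto ET replicon cells and read after 48 h.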

[2] = ET cells, luciferase activity 48 hours after compound

Compound `O=C(O)c1sc(-c2ccccc2)cc1N1C(=O)CN(S(=O)(=O)c2ccc(F)cc2)CC1C1CCCCC1` (stereo not shown) [Compound 109, 3-[2-Cyclohexyl-4-(4-fluoro-benzenesulfonyl)-6-oxo-piperazin-1-yl]-5-phenyl-thiophene-2-carboxylic acid] has an IC50 (HCV polymerase) of 30 nM and an IC50 ([1]; between 100 nM and 5.0 uM) of 100 to 5000 nM.
`Cn1ccc2c(S(=O)(=O)N3CC(=O)N(c4cc(-c5ccccc5)sc4C(=O)O)C(C4CCCCC4)C3)cccc21` (stereo not shown) [Compound 64, 3-[2-Cyclohexyl-4-(1-methyl-1H-indole-4-sulfonyl)-6-oxo-piperazin-1-yl]-5-phenyl-thiophene-2-carboxylic acid] showed an IC50 (HCV polymerase) of 31 nM and an IC50 ([1]; between 100 nM and 5.0 uM) of 100 to 5000 nM.
`O=C(O)c1sc(-c2ccccc2)cc1N1C(=O)CN(S(=O)(=O)c2ccc(N3CCNCC3)nc2)C[C@@H]1C1CCCCC1` [Compound 132, 3-[(S)-2-Cyclohexyl-6-oxo-4-(6-piperazin-1-yl-pyridine-3-sulfonyl)-piperazin-1-yl]-5-phenyl-thiophene-2-carboxylic acid] gave an IC50 (HCV polymerase) of 108 nM and an IC50 [1, 2] of at least 5000 nM.
`C[C@@H]1CCCN1c1ccc(S(=O)(=O)N2CC(=O)N(c3cc(-c4ccccc4)sc3C(=O)O)[C@H](C3CCCCC3)C2)cn1` [Compound 130, 3-{(R)-2-Cyclohexyl-4-[6-((R)-2-methyl-pyrrolidin-1-yl)-pyridine-3-sulfonyl]-6-oxo-piperazin-1-yl}-5-phenyl-thiophene-2-carboxylic acid] showed an IC50 (HCV polymerase) of 1 nM and an IC50 [1, 2] of at most 100 nM.
`CC(C)(C)C#Cc1cc(N2C(=O)C(CC(=O)N3CCOCC3)OC[C@H]2C2CCCCC2)c(C(=O)O)s1` (stereo partly drawn) [Compound 294, 3-[(R)-5-Cyclohexyl-2-(2-morpholin-4-yl-2-oxo-ethyl)-3-oxo-morpholin-4-yl]-5-(3,3-dimethyl-but-1-ynyl)-thiophene-2-carboxylic acid] gave an IC50 (HCV polymerase) of 7 nM and an IC50 ([1]; between 100 nM and 5.0 uM) of 100 to 5000 nM.
`CC(C)(C)C#Cc1cc(N2C(=O)CN(S(=O)(=O)c3cccc(Cl)c3)C[C@H]2C2CCCCC2)c(C(=O)O)s1` [Compound 242, 3-[(R)-4-(3-Chlorobenzenesulfonyl)-2-cyclohexyl-6-oxo-piperazin-1-yl]-5-(3,3-dimethyl-but-1-ynyl)-thiophene-2-carboxylic acid] showed an IC50 (HCV polymerase) of 5 nM and an IC50 ([1]; between 100 nM and 5.0 uM) of 100 to 5000 nM.
In the case of `CC(C)(C)C#Cc1cc(N2C(=O)[C@@](C)(CCC(C)(C)O)OC[C@H]2C2CCCCC2)c(C(=O)O)s1` [Compound 319, 3-[(2R,5R)-5-Cyclohexyl-2-(3-hydroxy-3-methyl-butyl)-2-methyl-3-oxo-morpholin-4-yl]-5-(3,3-dimethyl-but-1-ynyl)-thiophene-2-carboxylic acid], the IC50 (HCV polymerase) is reported as 4 nM and the IC50 [1, 2] is reported as at most 100 nM.
With `CC(C)(C)C#Cc1cc(N2C(=O)[C@@](C)(CCCO)OC[C@H]2C2CCCCC2)c(C(=O)O)s1` [Compound 311, 3-[(2R,5R)-5-Cyclohexyl-2-(3-hydroxy-propyl)-2-methyl-3-oxo-morpholin-4-yl]-5-(3,3-dimethyl-but-1-ynyl)-thiophene-2-carboxylic acid] the IC50 (HCV polymerase) was 2 nM and the IC50 [1, 2] was at most 100 nM.
`CC(C)(C)C#Cc1cc(N2C(=O)CCC2C2CCCCC2)c(C(=O)O)s1` (stereo not shown) [Compound 220, 3-(2-Cyclohexyl-5-oxo-pyrrolidin-1-yl)-5-(3,3-dimethyl-but-1-ynyl)-thiophene-2-carboxylic acid] showed an IC50 (HCV polymerase) of 15 nM and an IC50 ([1]; between 100 nM and 5.0 uM) of 100 to 5000 nM.
For `O=C(O)c1sc(-c2ccccc2)cc1N1C(=O)CN(S(=O)(=O)c2ccc(-c3cccnc3)nc2)C[C@H]1C1CCCCC1` [Compound 214, 3-[(R)-4-([2,3′]Bipyridinyl-5-sulfonyl)-2-cyclohexyl-6-oxo-piperazin-1-yl]-5-phenyl-thiophene-2-carboxylic acid], the IC50 (HCV polymerase) was 1 nM and the IC50 ([1]; between 100 nM and 5.0 uM) was 100 to 5000 nM.
With `Cc1ccc(-c2cc(N3C(=O)CN(S(=O)(=O)c4ccc(N5CCC[C@H]5C)nc4)C[C@H]3C3CCCCC3)c(C(=O)O)s2)cc1` [Compound 180, 3-{(R)-2-Cyclohexyl-4-[6-((R)-2-methyl-pyrrolidin-1-yl)-pyridine-3-sulfonyl]-6-oxo-piperazin-1-yl}-5-p-tolyl-thiophene-2-carboxylic acid] the IC50 (HCV polymerase) was under 0.2 nM and the IC50 [1, 2] was at most 100 nM.
For `CC1CCN(S(=O)(=O)N2CC(=O)N(c3cc(-c4ccccc4)sc3C(=O)O)C(C3CCCCC3)C2)CC1` (stereo not shown) [Compound 36, 3-[2-Cyclohexyl-4-(4-methyl-piperidine-1-sulfonyl)-6-oxo-piperazin-1-yl]-5-phenyl-thiophene-2-carboxylic acid], the IC50 (HCV polymerase) was 58 nM and the IC50 ([1]; between 100 nM and 5.0 uM) was 100 to 5000 nM.
With `O=C(O)c1sc(-c2ccccc2)cc1N1C(=O)CN(S(=O)(=O)c2ccccc2F)CC1C1CCCCC1` (stereo not shown) [Compound 40, 3-[2-Cyclohexyl-4-(2-fluoro-benzenesulfonyl)-6-oxo-piperazin-1-yl]-5-phenyl-thiophene-2-carboxylic acid] the IC50 (HCV polymerase) was 13 nM and the IC50 ([1]; between 100 nM and 5.0 uM) was 100 to 5000 nM.
`O=C(O)c1sc(-c2ccccc2)cc1N1C(=O)CN(S(=O)(=O)c2ccc(N3CCN[C@H](CO)C3)nc2)C[C@H]1C1CCCCC1` [Compound 139, 3-{(R)-2-Cyclohexyl-4-[6-((S)-3-hydroxymethyl-piperazin-1-yl)-pyridine-3-sulfonyl]-6-oxo-piperazin-1-yl}-5-phenyl-thiophene-2-carboxylic acid] showed an IC50 (HCV polymerase) of 1 nM and an IC50 ([1]; between 100 nM and 5.0 uM) of 100 to 5000 nM.
Compound `C[C@@H]1CCCCN1c1ccc(S(=O)(=O)N2CC(=O)N(c3cc(-c4ccccc4)sc3C(=O)O)[C@H](C3CCCCC3)C2)cn1` [Compound 183, 3-[(R)-2-Cyclohexyl-4-((R)-2-methyl-3,4,5,6-tetrahydro-2H-[1,2′]bipyridinyl-5′-sulfonyl)-6-oxo-piperazin-1-yl]-5-phenyl-thiophene-2-carboxylic acid] has an IC50 (HCV polymerase) of 1.8 nM and an IC50 [1, 2] of at most 100 nM.
`N#Cc1ccc(-c2cc(N3C(=O)CCCC3C3CCCCC3)c(C(=O)O)s2)cc1` (stereo not shown) [Compound 129, 5-(4-Cyano-phenyl)-3-(2-cyclohexyl-6-oxo-piperidin-1-yl)-thiophene-2-carboxylic acid] was tested, and the IC50 (HCV polymerase) was 96 nM and the IC50 ([1]; between 100 nM and 5.0 uM) was 100 to 5000 nM.
Compound `O=C(O)c1sc(-c2ccccc2)cc1N1C(=O)CCC1C1CCCCC1` (stereo not shown) [Compound 1, 3-(2-Cyclohexyl-5-oxo-pyrrolidin-1-yl)-5-phenyl-thiophene-2-carboxylic acid] has an IC50 (HCV polymerase) of 181 nM and an IC50 ([1]; between 100 nM and 5.0 uM) of 100 to 5000 nM.
For `CC(C)(C)OC(=O)N1CCN(c2ccc(S(=O)(=O)N3CC(=O)N(c4cc(-c5ccccc5)sc4C(=O)O)[C@H](C4CCCCC4)C3)cn2)C[C@@H]1CO` [Compound 161, (R)-4-{5-[(R)-4-(2-Carboxy-5-phenyl-thiophen-3-yl)-3-cyclohexyl-5-oxo-piperazine-1-sulfonyl]-pyridin-2-yl}-2-hydroxymethyl-piperazine-1-carboxylic acid tert-butyl ester], the IC50 (HCV polymerase) was 1 nM and the IC50 [1, 2] was at most 100 nM.
Compound `Cc1nc(S(=O)(=O)N2CC(=O)N(c3cc(C#CC(C)(C)C)sc3C(=O)O)[C@H](C3CCCCC3)C2)cn1C` [Compound 248, 3-[(R)-2-Cyclohexyl-4-(1,2-dimethyl-1H-imidazole-4-sulfonyl)-6-oxopiperazin-1-yl]-5-(3,3-dimethyl-but-1-ynyl)-thiophene-2-carboxylic acid] has an IC50 (HCV polymerase) of 2 nM and an IC50 [1, 2] of at most 100 nM.
`O=C(O)c1sc(-c2ccc(F)cc2)cc1N1C(=O)CN(S(=O)(=O)c2ccc(N3CCCCCC3)nc2)C[C@H]1C1CCCCC1` [Compound 285, 3-[(R)-4-(6-Azepan-1-yl-pyridine-3-sulfonyl)-2-cyclohexyl-6-oxo-piperazin-1-yl]-5-(4-fluoro-phenyl)-thiophene-2-carboxylic acid] was tested, and the IC50 (HCV polymerase) was 2 nM and the IC50 [1, 2] was at most 100 nM.
For `O=C(O)c1sc(-c2ccccc2)cc1N1C(=O)CN(S(=O)(=O)c2ccc(N3CC[C@H](O)C3)nc2)CC1C1CCCCC1` (stereo partly drawn) [Compound 124, 3-{2-Cyclohexyl-4-[6-((S)-3-hydroxy-pyrrolidin-1-yl)-pyridine-3-sulfonyl]-6-oxo-piperazin-1-yl}-5-phenyl-thiophene-2-carboxylic acid], the IC50 (HCV polymerase) was 4 nM and the IC50 ([1]; between 100 nM and 5.0 uM) was 100 to 5000 nM.
`O=C(O)c1sc(-c2ccccc2)cc1N1C(=O)CN(S(=O)(=O)c2ccc(N3CCC3)nc2)CC1C1CCCCC1` (stereo not shown) [Compound 74, 3-[4-(6-Azetidin-1-yl-pyridine-3-sulfonyl)-2-cyclohexyl-6-oxo-piperazin-1-yl]-5-phenyl-thiophene-2-carboxylic acid] showed an IC50 (HCV polymerase) of 12 nM and an IC50 [1, 2] of at most 100 nM.
Work on `CN(C)[C@H]1CCN(c2ccc(S(=O)(=O)N3CC(=O)N(c4cc(-c5ccccc5)sc4C(=O)O)[C@H](C4CCCCC4)C3)cn2)C1` [Compound 156, 3-{(R)-2-Cyclohexyl-4-[6-((S)-3-dimethylamino-pyrrolidin-1-yl)-pyridine-3-sulfonyl]-6-oxo-piperazin-1-yl}-5-phenyl-thiophene-2-carboxylic acid] yielded an IC50 (HCV polymerase) of 1 nM and an IC50 [1, 2] of at most 100 nM.
In the case of `COCCN(CCOC)c1ccc(S(=O)(=O)N2CC(=O)N(c3cc(-c4ccccc4)sc3C(=O)O)C(C3CCCCC3)C2)cn1` (stereo not shown) [Compound 80, 3-(4-{6-[Bis-(2-methoxy-ethyl)-amino]-pyridine-3-sulfonyl}-2-cyclohexyl-6-oxo-piperazin-1-yl)-5-phenyl-thiophene-2-carboxylic acid], the IC50 (HCV polymerase) is reported as 6 nM and the IC50 [1, 2] is reported as at most 100 nM.
`COC[C@@H]1CCCN1c1ccc(S(=O)(=O)N2CC(=O)N(c3cc(-c4ccc(F)cc4)sc3C(=O)O)[C@H](C3CCCCC3)C2)cn1` [Compound 279, 3-{(R)-2-Cyclohexyl-4-[6-((S)-2-methoxymethyl-pyrrolidin-1-yl)-pyridine-3-sulfonyl]-6-oxo-piperazin-1-yl}-5-(4-fluoro-phenyl)-thiophene-2-carboxylic acid] gave an IC50 (HCV polymerase) of 1.1 nM and an IC50 [1, 2] of at most 100 nM.
Compound `CC(C)(C)C#Cc1cc(N2C(=O)COC[C@H]2C2CCCCC2)c(C(=O)O)s1` [Compound 236, 3-((R)-3-Cyclohexyl-5-oxo-morpholin-4-yl)-5-(3,3-dimethyl-but-1-ynyl)-thiophene-2-carboxylic acid] has an IC50 (HCV polymerase) of 3 nM and an IC50 [1, 2] of at most 100 nM.
